Reference: patent US9115176B2, “Compounds, use thereof in cosmetic and cosmeceutic applications, and compositions comprising same” (Lucas Meyer Cosmetics Canada Inc., priority 2007, dated 2015)
* marks the point of attachment. Hexanoyl = CCCCCC(=O)*

How the values were obtained:
collagen VII = test: Synthesis of collagen VII in human skin fragments treated with dermal corticosteroid (immunohistochemistry, semi-quantitative score); type: cell-based
Experimental: (§1) Fragments of normal human skin were treated or not in the presence of a dermal corticosteroid at 0.05% w/v and peptide I at a concentration of 10^−7M. Dermal corticosteroid are known to alter cell metabolism. The skin samples were then frozen at day 3 for an immunohistochemical analysis of collagen VII. The immunodetection was performed with a 3 coats indirect immunoperoxidase method (ABC Peroxidase kit, Vector laboratories) using a primary antibody specific to collagen VII.

[1] = test system: Normal human dermal fibroblasts; test: Neosynthesis of laminin in normal human dermal fibroblasts (E.I.A. kit, normalised to Bradford protein); type: cell-based; details: for Laminins (ng/μg proteins) % increase: 48 hours incubation, untreated control = 100.0%
Experimental: Normal human dermal fibroblasts were incubated for 48 hours in absence or presence of Transforming Growth Factor (TGF)-β at 50 ng/ml or of peptide I at two concentrations, namely 10^−6M and 10^−7M. At the end of the incubation period, laminins were quantified with the E.I.A. Enzyme Immuno Assay kit. Proteins contained in the cell lysate were also quantified by spectrocolorimetry according to the Bradford method. TGF-β and peptide I were tested in dose-response on the fibroblasts.
The data presented in Table I below represent the relative increase in laminin synthesis in a human dermal fibroblast culture medium in monolayers in the presence of peptide I, or TGF-β, as compared to untreated cells (control).

crow's feet = test: In vivo anti-wrinkle activity on crow's feet (photographs, silicone replicas, fringe projection); set-up: species or system human; details: 5 ppm in Table VI formulation, topical twice daily, after 28 and 56 days, versus placebo
Experimental: Peptide I was tested in the formulation described in Table VI below versus its placebo on 30 subjects (+10%) selected according to the inclusion/non inclusion criteria. [table] The study lasted 56 days following the first application. Volunteers applied the product twice daily on a randomised crow's foot of the temple. The study was a simple blind test, comparing the results obtained at one treated area following application of the composition comprising peptide I with those obtained at another treated area with the placebo. The evaluation of the efficacy of the formulation comprising peptide I was performed using: (a) illustrative digital photographs of the crow's feet; and (b) Silicone rubber replicas of the crow's feet (analysis of the wrinkles and of the skin network by fringe projection). In vitro fringe projection—Topometry—Wrinkles. […] All the silicone rubber replicas were analysed by fringe projection to observe the cutaneous relief. The following parameters were measured: (a) SPa: Average roughness; (b) SPq: Average dispersal of the variations of the relief; (c) SPt: Maximum amplitude of the relief and (d) SDev: Developed Surface. […] All the replicas were analysed by fringe projection to observe the skin network analysis. The following parameters were measured: (a) SRa: Average roughness (mm); and (b) SRq: Average with regards to the average quadratic (mm).

laminin-5 = test: Synthesis of laminin-5 in human skin fragments treated with dermal corticosteroid (immunohistochemistry, semi-quantitative score); type: cell-based
Experimental: as §1, with “or” for “and”, “10^−7M.” for “10^−7M. Dermal corticosteroid are known to alter cell metabolism.”, “laminin-5.” for “collagen VII.”, “(BC” for “(ABC”

[2] = skin + corticosteroids 0.05% w/v + peptide I 10^−7M, day 3

Substance: CH3—(CH2)4—CO-Lys-Gly-His-Lys-NH2 (Hexanoyl-KGHK-NH2; SMILES CCCCCC(=O)N[C@@H](CCCCN)C(=O)NCC(=O)N[C@@H](Cc1c[nH]cn1)C(=O)N[C@@H](CCCCN)C(N)=O) [Peptide I]
- Collagen VII score, relative change (collagen VII; [2]): +34%
- Collagen VII labelling score (collagen VII; skin + corticosteroids 0.05% w/v + peptide I 10^−7M, day 3, control skin 1.9 ± 0.8): 2.25 ± 0.2
- Effect on synthesis of collagen VII in a human skin model (in words) (collagen VII; summary of Table III): increases the synthesis of collagen VII
- Laminins (ng/μg proteins) % increase ([1]; 10^−6M): 125.8%
- Laminins (ng/μg proteins) % increase ([1]; 10^−7M): 125.9%
- Effect on laminin synthesis in human dermal fibroblast cells (in words) ([1]; summary of Table I): increases laminin synthesis
- Crow's feet skin network roughness (in words) (crow's feet): reduction of the crow's feet skin network roughness
- Reduction of the wrinkles (crow's feet roughness, in words) (crow's feet): potent efficacy
- Laminin-5 score, relative change (laminin-5; [2]): +49%
- Laminin-5 labelling score (laminin-5; skin + corticosteroids 0.05% w/v + peptide I 10^−7M, day 3, control skin 2.1 ± 1.3): 2.2 ± 0.8
- Effect on synthesis of laminin-5 in a human skin model (in words) (laminin-5; summary of Table V): increases the synthesis of laminin-5

Substance: TGF-β [reference compound]
- Laminins (ng/μg proteins) % increase ([1]; 50 ng/ml): 109.9%
